Data: the OligoGym collection
HELM strings list units from the 5' end as sugar, base in round brackets, then linkage (d deoxyribose, r ribose, m 2'-O-methyl, p phosphodiester). Strings are as the collection lists them; they lack the last nucleoside at the 3' end of the tested compound. [moe] = 2'-O-(2-methoxyethyl) (MOE); [sp] = phosphorothioate linkage; [m5C] = 5-methylcytosine

The substances below were run against ATXN2 (assay: mouse, dose not given). Details: ASO.

| Substance | 3 h FOB score [score 0-7] |
| --- | --- |
| RNA1{[moe](T)[sp].[moe](G)p.[moe](T)p.[moe](T)p.[moe](G)p.d([m5C])[sp].d(A)[sp].d([m5C])[sp].d(A)[sp].d(T)[sp].d(A)[sp].d(G)[sp].d(G)[sp].d(T)[sp].d(T)[sp].[moe](A)p.[moe](G)p.[moe](A)[sp].[moe](A)}$$$$ (last 3' nucleoside missing) | 4 |
| RNA1{[moe](T)[sp].[moe](G)p.[moe](T)p.[moe](T)p.[moe](T)p.d(G)[sp].d(T)[sp].d(T)[sp].d(T)[sp].d(G)[sp].d(T)[sp].d(T)[sp].d(T)[sp].d(T)[sp].d(A)[sp].[moe](A)p.[moe](G)p.[moe](T)[sp].[moe](A)}$$$$ (last 3' nucleoside missing) | 6.5 |
| RNA1{[moe](T)[sp].[moe](G)p.[moe](T)p.[moe](T)p.[moe]([m5C])p.d(T)[sp].d(T)[sp].d([m5C])[sp].d([m5C])[sp].d(A)[sp].d(A)[sp].d(T)[sp].d(T)[sp].d(T)[sp].d([m5C])[sp].[moe](A)p.[moe](G)p.[moe](A)[sp].[moe]([m5C])}$$$$ (last 3' nucleoside missing) | 0 |
| RNA1{[moe](T)[sp].[moe](G)p.[moe](T)p.[moe]([m5C])p.[moe](A)p.d(T)[sp].d(A)[sp].d([m5C])[sp].d(T)[sp].d(G)[sp].d(T)[sp].d(A)[sp].d(T)[sp].d(T)[sp].d(G)[sp].[moe](T)p.[moe](T)p.[moe](T)[sp].[moe](T)}$$$$ (last 3' nucleoside missing) | 5.25 |
| RNA1{[moe](T)[sp].[moe](G)p.[moe]([m5C])p.[moe](A)p.[moe](A)p.d([m5C])[sp].d(T)[sp].d(T)[sp].d(A)[sp].d(A)[sp].d(T)[sp].d(A)[sp].d(A)[sp].d([m5C])[sp].d([m5C])[sp].[moe](T)p.[moe](T)p.[moe](A)[sp].[moe](G)}$$$$ (last 3' nucleoside missing) | 1.75 |
| RNA1{[moe](T)[sp].[moe](G)p.[moe]([m5C])p.[moe](T)p.[moe](A)[sp].d(A)[sp].d([m5C])[sp].d(T)[sp].d(G)[sp].d(G)[sp].d(T)[sp].d(T)[sp].d(T)[sp].[moe](G)p.[moe]([m5C])p.[moe]([m5C])[sp].[moe]([m5C])}$$$$ (last 3' nucleoside missing) | 6 |
| RNA1{[moe](T)[sp].[moe](G)p.[moe]([m5C])p.[moe](T)p.[moe](A)p.d(A)[sp].d([m5C])[sp].d(T)[sp].d(G)[sp].d(G)[sp].d(T)[sp].d(T)[sp].d(T)[sp].d(G)[sp].d([m5C])[sp].[moe]([m5C])p.[moe]([m5C])p.[moe](T)[sp].[moe](T)}$$$$ (last 3' nucleoside missing) | 7 |
| RNA1{[moe](T)[sp].[moe](G)p.[moe]([m5C])p.[moe](T)p.[moe](T)p.d(A)[sp].d(T)[sp].d(T)[sp].d(A)[sp].d(T)[sp].d(T)[sp].d([m5C])[sp].d(T)[sp].d([m5C])[sp].d(A)[sp].[moe]([m5C])p.[moe](A)p.[moe](T)[sp].[moe](A)}$$$$ (last 3' nucleoside missing) | 0 |
| RNA1{[moe](T)[sp].[moe](G)p.[moe]([m5C])p.[moe](T)p.[moe]([m5C])p.d(T)[sp].d([m5C])[sp].d(T)[sp].d(T)[sp].d(T)[sp].d(G)[sp].d([m5C])[sp].d(G)[sp].d([m5C])[sp].d([m5C])[sp].[moe](T)p.[moe](G)p.[moe](T)[sp].[moe](G)}$$$$ (last 3' nucleoside missing) | 5 |
| RNA1{[moe](T)[sp].[moe](G)p.[moe]([m5C])p.[moe]([m5C])p.[moe](T)[sp].d([m5C])[sp].d(T)[sp].d(A)[sp].d([m5C])[sp].d(T)[sp].d([m5C])[sp].d(G)[sp].d(G)[sp].[moe](T)p.[moe]([m5C])p.[moe]([m5C])[sp].[moe](A)}$$$$ (last 3' nucleoside missing) | 4 |
| RNA1{[moe](T)[sp].[moe](T)p.[moe](A)p.[moe](A)p.[moe]([m5C])p.d(A)[sp].d([m5C])[sp].d(T)[sp].d(T)[sp].d(T)[sp].d(A)[sp].d([m5C])[sp].d(T)[sp].d([m5C])[sp].d(A)[sp].[moe]([m5C])p.[moe](T)p.[moe](G)[sp].[moe]([m5C])}$$$$ (last 3' nucleoside missing) | 4.5 |
| RNA1{[moe](T)[sp].[moe](T)p.[moe](A)p.[moe](A)p.[moe]([m5C])p.d(T)[sp].d(G)[sp].d(T)[sp].d(G)[sp].d(T)[sp].d(T)[sp].d(A)[sp].d(G)[sp].d(A)[sp].d(A)[sp].[moe](T)p.[moe](G)p.[moe]([m5C])[sp].[moe](T)}$$$$ (last 3' nucleoside missing) | 5.5 |
| RNA1{[moe](T)[sp].[moe](T)p.[moe](A)p.[moe](G)p.[moe](A)[sp].d(G)[sp].d(T)[sp].d(T)[sp].d(T)[sp].d(T)[sp].d(T)[sp].d(G)[sp].d([m5C])[sp].[moe]([m5C])p.[moe](T)p.[moe](T)[sp].[moe]([m5C])}$$$$ (last 3' nucleoside missing) | 5.5 |
| RNA1{[moe](T)[sp].[moe](T)p.[moe](A)p.[moe](G)p.[moe](A)p.d(G)[sp].d(T)[sp].d(T)[sp].d(T)[sp].d(T)[sp].d(T)[sp].d(G)[sp].d([m5C])[sp].d([m5C])[sp].d(T)[sp].[moe](T)p.[moe]([m5C])p.[moe]([m5C])[sp].[moe](A)}$$$$ (last 3' nucleoside missing) | 3.5 |
| RNA1{[moe](T)[sp].[moe](T)p.[moe](A)p.[moe](G)p.[moe](G)p.d([m5C])[sp].d(T)[sp].d(A)[sp].d(G)[sp].d(G)[sp].d([m5C])[sp].d(A)[sp].d([m5C])[sp].d(A)[sp].d(T)[sp].[moe](G)p.[moe](G)p.[moe](A)[sp].[moe](G)}$$$$ (last 3' nucleoside missing) | 5.25 |
| RNA1{[moe](T)[sp].[moe](T)p.[moe](A)p.[moe](G)p.[moe]([m5C])p.d(T)[sp].d([m5C])[sp].d(A)[sp].d(T)[sp].d([m5C])[sp].d(A)[sp].d(A)[sp].d(G)[sp].d(G)[sp].d(T)[sp].[moe](A)p.[moe]([m5C])p.[moe]([m5C])[sp].[moe](A)}$$$$ (last 3' nucleoside missing) | 3.75 |
| RNA1{[moe](T)[sp].[moe](T)p.[moe](A)p.[moe]([m5C])p.[moe](T)[sp].d(G)[sp].d(T)[sp].d(T)[sp].d(T)[sp].d([m5C])[sp].d(G)[sp].d(A)[sp].d([m5C])[sp].[moe]([m5C])p.[moe](T)p.[moe]([m5C])[sp].[moe](T)}$$$$ (last 3' nucleoside missing) | 6 |
| RNA1{[moe](T)[sp].[moe](T)p.[moe](A)p.[moe]([m5C])p.[moe](T)p.d(G)[sp].d(T)[sp].d(T)[sp].d(T)[sp].d([m5C])[sp].d(G)[sp].d(A)[sp].d([m5C])[sp].d([m5C])[sp].d(T)[sp].[moe]([m5C])p.[moe](T)p.[moe](G)[sp].[moe](A)}$$$$ (last 3' nucleoside missing) | 4.5 |
| RNA1{[moe](T)[sp].[moe](T)p.[moe](A)p.[moe]([m5C])p.[moe](T)p.d(T)[sp].d([m5C])[sp].d(T)[sp].d(T)[sp].d(T)[sp].d(T)[sp].d(G)[sp].d([m5C])[sp].d(T)[sp].d(A)[sp].[moe](G)p.[moe]([m5C])p.[moe](T)[sp].[moe](G)}$$$$ (last 3' nucleoside missing) | 1 |
